# Biological target: T1, HCV-NS5b (Hepatitis C virus genotype 1b, UniProt Q9WMX2)
# T1 construct: The cloned fragment was missing the C terminus 21 amino acid residues; (His)6 (C); made in house; host or cells: XL-1 cells (E. coli)
# Assay: HCV-NS5b Enzyme Assay
# Assay type: biochemical
# Conditions: 1 μM test compound; incorporation of [3H]-UTP, 37° C., 2 hours
# Procedure, shortened: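 The NS5B construct lacks its C-terminal 21 residues, carries a C-terminal His6 tag and was expressed in E. coli. [^3H]-UTP incorporation on a biotinylated HCV heteropolymeric template (10 ng/μL) with 10 μM each NTP, pH 7.5, 5 mM MgCl2 and 5% DMSO ran 2 h at 37° C and was read by SPA scintillation. IC50s came from 10-point 2-fold series starting at 50 or 2 μM.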
Structure (SMILES),inhibition at 1 µM [%],% inhibition @ 1 μM [%]
"Nc1cccc(-c2ccc3cc(-c4c(C5CCCCC5)c5ccc(C(=O)O)cc5n4CC(=O)N4CCOCC4)ccc3n2)c1 [Compound 264, 2-[2-(3-Amino-phenyl)-quinolin-6-yl]-3-cyclohexyl-1-(2-morpholin-4-yl-2-oxo-ethyl)-1H-indole-6-carboxylic acid]",93,
"Cc1nccnc1-c1ccc2cc(-c3c(C4CCCCC4)c4ccc(C(=O)O)cc4n3CC(=O)N3CCOCC3)ccc2n1 [Compound 268, 3-Cyclohexyl-2-[2-(3-methyl-pyrazin-2-yl)-quinolin-6-yl]-1-(2-morpholin-4-yl-2-oxo-ethyl)-1H-indole-6-carboxylic acid]",96.1,
"O=C(O)c1ccc2c(C3CCCCC3)c(-c3ccc4nc(-c5cccc(C(F)(F)F)c5)ccc4c3)n(CC(=O)N3CCOCC3)c2c1 [Compound 247, 3-Cyclohexyl-1-(2-morpholin-4-yl-2-oxo-ethyl)-2-[2-(3-trifluoromethyl-phenyl)-quinolin-6-yl]-1H-indole-6-carboxylic acid]",98.4,
"O=C(O)c1ccc2c(C3CCCCC3)c(-c3ccc4nc(-c5cccs5)ccc4c3)n(CC(=O)N3CCOCC3)c2c1 [Compound 224, 1-[N-morpholinocarbonylmethyl]-2-[2-thien-2-ylquinolin-6-yl]-3-cyclohexyl-1H-indole-6-carboxylic acid]",,98.2
"Cc1nc(C)c(-c2ccc3cc(-c4c(C5CCCCC5)c5ccc(-c6nnn[nH]6)cc5n4CC(=O)N4CCOCC4)ccc3n2)s1 [Compound 244, 2-[3-Cyclohexyl-2-[2-(2,4-dimethyl-thiazol-5-yl)-quinolin-6-yl]-6-(1H-tetrazol-5-yl)-indol-1-yl]-1-morpholin-4-yl-ethanone]",97.2,
"COc1ccc(-c2ccc(Cl)cc2)c(-c2ccc3cc(-c4c(C5CCCCC5)c5ccc(C(=O)O)cc5n4CC(=O)N4CCNCC4)ccc3n2)c1 [Compound 204, 1-[N-piperazinylcarbonylmethyl]-2-[2-(4′-chloro-4-methoxy-biphen-2-yl)-quinolin-6-yl]-3-cyclohexyl-1H-indole-6-carboxylic acid]",95.9,
"COc1ccc(-c2ccc3cc(-c4c(C5CCCCC5)c5ccc(C(=O)O)cc5n4CC(=O)N4CCOCC4)ccc3n2)c(F)c1 [Compound 257, 3-Cyclohexyl-2-[2-(2-fluoro-4-methoxy-phenyl)-quinolin-6-yl]-1-(2-morpholin-4-yl-2-oxo-ethyl)-1H-indole-6-carboxylic acid]",98.6,
"Cc1ccccc1-c1ccc2cc(-c3c(C4CCCCC4)c4ccc(C(=O)O)cc4n3CC(=O)N3CCOCC3)ccc2n1 [Compound 232, 3-Cyclohexyl-1-(2-morpholin-4-yl-2-oxo-ethyl)-2-(2-o-tolyl-quinolin-6-yl)-1H-indole-6-carboxylic acid]",97.5,
"O=C(O)c1ccc2c(C3CCCCC3)c(-c3ccc4nc(-c5c(F)cccc5F)ccc4c3)n(CC(=O)N3CCOCC3)c2c1 [Compound 259, 3-Cyclohexyl-2-[2-(2,6-difluoro-phenyl)-quinolin-6-yl]-1-(2-morpholin-4-yl-2-oxo-ethyl)-1H-indole-6-carboxylic acid]",95.8,
"Cc1nc(C)c(-c2ccc3cc(-c4c(C5CCCCC5)c5ccc(C(=O)NS(C)(=O)=O)cc5n4CC(=O)N4CCOCC4)ccc3n2)s1 [Compound 240, N-[3-Cyclohexyl-2-[2-(2,4-dimethyl-thiazol-5-yl)-quinolin-6-yl]-1-(2-morpholin-4-yl-2-oxo-ethyl)-1H-indole-6-carbonyl]-methanesulfonamide]",97.7,
"COc1ccc(-c2ccc3cc(-c4c(C5CCCCC5)c5ccc(C(=O)O)cc5n4CC(=O)N4CCOCC4)ccc3n2)cc1 [Compound 254, 3-Cyclohexyl-2-[2-(4-methoxy-phenyl)-quinolin-6-yl]-1-(2-morpholin-4-yl-2-oxo-ethyl)-1H-indole-6-carboxylic acid]",96.9,
"COc1cc(OC)cc(-c2ccc3cc(-c4c(C5CCCCC5)c5ccc(C(=O)O)cc5n4CC(=O)N4CCOCC4)ccc3n2)c1 [Compound 251, 3-Cyclohexyl-2-[2-(3,5-dimethoxy-phenyl)-quinolin-6-yl]-1-(2-morpholin-4-yl-2-oxo-ethyl)-1H-indole-6-carboxylic acid]",98.5,
"Cc1nc(C)c(-c2ccc3cc(-c4c(C5CCCCC5)c5ccc(C#N)cc5n4CC(=O)N4CCOCC4)ccc3n2)s1 [Compound 243, 3-Cyclohexyl-2-[2-(2,4-dimethyl-thiazol-5-yl)-quinolin-6-yl]-1-(2-morpholin-4-yl-2-oxo-ethyl)-1H-indole-6-carbonitrile]",37.8,
"COc1ccc(-c2ccc3cc(-c4c(C5CCCCC5)c5ccc(C(=O)O)cc5n4CC(=O)N4CCOCC4)ccc3n2)cc1OC [Compound 253, 3-Cyclohexyl-2-[2-(3,4-dimethoxy-phenyl)-quinolin-6-yl]-1-(2-morpholin-4-yl-2-oxo-ethyl)-1H-indole-6-carboxylic acid]",97.5,
"COc1ccc(-c2ccc(Cl)cc2)c(-c2ccc3cc(-c4c(C5CCCCC5)c5ccc(C(=O)O)cc5n4CC(=O)N4CCC(N5CCCC5)CC4)ccc3n2)c1 [Compound 205, 1-[(4-pyrrolidin-1-yl-piperidin-1-yl)carbonylmethyl]-2-[2-(4′-chloro-4-methoxy-biphen-2-yl)-quinolin-6-yl]-3-cyclohexyl-1H-indole-6-carboxylic acid]",97,

# The remaining lines, values ahead:
inhibition at 1 µM [%],% inhibition @ 1 μM [%],Structure (SMILES)
93.6,,"CCOc1ncc(-c2ccc3cc(-c4c(C5CCCCC5)c5ccc(C(=O)O)cc5n4CC(=O)N4CCOCC4)ccc3n2)c(C)n1 [Compound 269, 3-Cyclohexyl-2-[2-(2-ethoxy-4-methyl-pyrimidin-5-yl)-quinolin-6-yl]-1-(2-morpholin-4-yl-2-oxo-ethyl)-1H-indole-6-carboxylic acid]"
99.3,,"O=C(O)c1ccc2c(C3CCCCC3)c(-c3ccc(-c4ccccc4F)cc3)n(CC(=O)N3CCOCC3)c2c1 [Compound 302, 3-Cyclohexyl-2-(2′-fluoro-biphenyl-4-yl)-1-(2-morpholin-4-yl-2-oxo-ethyl)-1H-indole-6-carboxylic acid]"
74.3,,"Cc1nc(C)c(-c2ccc3cc(-c4c(C5CCCCC5)c5ccc(C(=O)O)cc5n4CC(=O)N4CCOCC4)cnc3n2)s1 [Compound 319, 3-Cyclohexyl-2-[7-(2,4-dimethyl-thiazol-5-yl)-[1,8]naphthyridin-3-yl]-1-(2-morpholin-4-yl-2-oxo-ethyl)-1H-indole-6-carboxylic acid]"
93.6,,"O=C(O)c1ccc2c(C3CCCCC3)c(-c3ccc4nc(-c5ccncc5)ccc4c3)n(CC(=O)N3CCOCC3)c2c1 [Compound 325, 3-Cyclohexyl-1-(2-morpholin-4-yl-2-oxo-ethyl)-2-(2-pyridin-4-yl-quinolin-6-yl)-1H-indole-6-carboxylic acid]"
99.6,,"O=C(O)c1ccc2c(C3CCCCC3)c(-c3ccc(-c4cccc([N+](=O)[O-])c4)cc3)n(CC(=O)N3CCOCC3)c2c1 [Compound 310, 3-Cyclohexyl-2-(3′-nitro-biphenyl-4-yl)-1-(2-morpholin-4-yl-2-oxo-ethyl)-1H-indole-6-carboxylic acid]"
94.9,,"CN(C)c1ccc(-c2ccc(-c3c(C4CCCCC4)c4ccc(C(=O)O)cc4n3CC(=O)N3CCOCC3)cc2)cc1 [Compound 299, 3-Cyclohexyl-2-(4′-dimethylamino-biphenyl-4-yl)-1-(2-morpholin-4-yl-2-oxo-ethyl)-1H-indole-6-carboxylic acid]"
98.2,,"Cc1ccc(-c2ccc(-c3c(C4CCCCC4)c4ccc(C(=O)O)cc4n3CC(=O)N3CCOCC3)cc2)cc1 [Compound 300, 3-Cyclohexyl-2-(4′-methyl-biphenyl-4-yl)-1-(2-morpholin-4-yl-2-oxo-ethyl)-1H-indole-6-carboxylic acid]"
96,,"Cc1nc(C)c(-c2ccc3cc(-c4c(C5CCCCC5)c5ccc(C(=O)O)cc5n4CC(=O)N4CCC(N(C)C)CC4)ccc3n2)s1 [Compound 274, 3-Cyclohexyl-1-[2-(4-dimethylamino-piperidin-1-yl)-2-oxo-ethyl]-2-[2-(2,4-dimethyl-thiazol-5-yl)-quinolin-6-yl]-1H-indole-6-carboxylic acid]"
77.6,,"Cc1sc(-c2ccc3cc(-c4c(C5CCCCC5)c5ccc(C(=O)O)cc5n4CC(=O)N4CCOCC4)ccc3n2)c(C)[n+]1[O-] [Compound 281, 3-Cyclohexyl-2-[2-(2,4-dimethyl-3-oxy-thiazol-5-yl)-quinolin-6-yl]-1-(2-morpholin-4-yl-2-oxo-ethyl)-1H-indole-6-carboxylic acid]"
97.6,,"Cc1nc(C)c(C2CCc3cc(-c4c(C5CCCCC5)c5ccc(C(=O)O)cc5n4CC(=O)N4CCOCC4)ccc3N2)s1 (stereo not shown) [Compound 323, 3-Cyclohexyl-2-[2-(2,4-dimethyl-thiazol-5-yl)-1,2,3,4-tetrahydro-quinolin-6-yl]-1-(2-morpholin-4-yl-2-oxo-ethyl)-1H-indole-6-carboxylic acid]"
101,,"O=C(O)c1ccc2c(C3CCCCC3)c(-c3ccc(-c4ccc5cc(Br)ccc5n4)cc3)n(CC(=O)N3CCOCC3)c2c1 [Compound 298, 2-[4-(6-Bromo-quinolin-2-yl)-phenyl]-3-cyclohexyl-1-(2-morpholin-4-yl-2-oxo-ethyl)-1H-indole-6-carboxylic acid]"
98.5,,"COc1ncccc1-c1ccc(-c2c(C3CCCCC3)c3ccc(C(=O)O)cc3n2CC(=O)N2CCOCC2)cc1 [Compound 304, 3-Cyclohexyl-2-[4-(2-methoxy-pyridin-3-yl)-phenyl]-1-(2-morpholin-4-yl-2-oxo-ethyl)-1H-indole-6-carboxylic acid]"
95.1,,"O=C(O)c1ccc2c(C3CCCCC3)c(-c3ccc4cc(-c5ccccc5F)ccc4c3)n(CC(=O)N3CCOCC3)c2c1 [Compound 322, 3-Cyclohexyl-2-[6-(2-fluoro-phenyl)-naphthalen-2-yl]-1-(2-morpholin-4-yl-2-oxo-ethyl)-1H-indole-6-carboxylic acid]"

# — patent US20060211698A1, “Bicyclic heteroaryl derivatives for treating viruses” (Genelabs, Inc., priority 2005, published 2006)
